SMILES strings stand for the structures. pIC50: −log10 of the molar value. Starred links: 1 amine or outer side, 2 acyl side, 3 side chain; linkers in the order of their positions; H or OH if unused. Positions of bridges follow the written chain, without caps; N, C: chain ends. Non-standard residues stand in square brackets, D forms with d. Residues, ends and D or L forms follow the SMILES beside them. Groups on a side chain read outwards from the residue. *: point of attachment. Trp(1-CH2CO2Me) = COC(=O)Cn1cc(C[C@H](N)C(=O)O)c2ccccc21; Trp(1-CH2COOH) = N[C@@H](Cc1cn(CC(=O)O)c2ccccc12)C(=O)O; Benzoyl(2-(4-MeOPh)) = COc1ccc(-c2ccccc2C(=O)*)cc1; X23 = COc1cc(NC(=S)*)ccc1-n1cnc(Cl)c1; X24 = COc1cc(NC(=S)*)ccc1-n1cnc(C)n1; Hyp = O=C(O)[C@@H]1C[C@@H](O)CN1; X10 = S=C(Nc1ccc(N2CCOCC2)cc1)*; X3 = S=C(Nc1ccc(Oc2ccccc2)cc1)*; X80 = S=C(Nc1ccc(-n2cccn2)cc1)*; X94 = S=C(Nc1ccc(N2CCOCC2)nc1)*; NMeNle = CCCC[C@H](NC)C(=O)O; X2 = c1ccc(-c2ccccc2N*)cc1; NMeA = CN[C@@H](C)C(=O)O; Dab = NCC[C@H](N)C(=O)O; Dap = NC[C@H](N)C(=O)O; CO = O=C([*:1])[*:2]; NHPh = c1ccc(N*)cc1

The target in one test is T1, PD-1/PD-L1 (Homo sapiens, UniProt Q9NZQ7).
T1 construct: TVMV protease site linker (C); made in house; host or cells: HEK293T cells
T1 sequence (Q9NZQ7 18-239): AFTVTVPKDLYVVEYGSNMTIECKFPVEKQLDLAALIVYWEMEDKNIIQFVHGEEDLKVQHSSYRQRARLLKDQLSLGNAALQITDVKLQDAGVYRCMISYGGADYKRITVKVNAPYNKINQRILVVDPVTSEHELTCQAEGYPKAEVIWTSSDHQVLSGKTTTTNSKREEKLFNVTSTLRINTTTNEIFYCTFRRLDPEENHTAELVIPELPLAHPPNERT
Nature of the test: PD-1/PD-L1 Homogenous Time-Resolved Fluorescence (HTRF) binding assay.
Details: not given
In outline: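 Compounds preincubated 15 min with PD-L1-His (10 nM final), then PD-1-Ig (20 nM final) added for 15 min in dPBS with 0.1% BSA, 0.05% Tween-20. Detection by Eu-cryptate anti-Ig (1 nM) and APC anti-His (20 nM) HTRF.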
In general terms: TR-FRET usually uses a lanthanide donor and a delayed reading to cut background.
For the molecule `CCCC[C@H]1C(=O)N(C)[C@@H](CCCC)C(=O)N[C@@H](CC(C)C)C(=O)N[C@H](C(=O)NCC(N)=O)CSCC(=O)N[C@@H](Cc2ccc(O)cc2)C(=O)N(C)[C@@H](C)C(=O)N[C@@H](CC(N)=O)C(=O)N2CCC[C@H]2C(=O)N[C@@H](CNC(=O)Nc2ccccc2-c2ccccc2)C(=O)N[C@@H](CC(C)C)C(=O)N2C[C@H](O)C[C@H]2C(=O)N[C@@H](Cc2c[nH]c3ccccc23)C(=O)N[C@@H](CCN)C(=O)N[C@@H](Cc2cn(CC(=O)O)c3ccccc23)C(=O)N1C` [Example 1062] ({CH2CO}-Y[NMeA]NP[Dap]([CO-X2])L[Hyp]W[Dab][Trp(1-CH2COOH)][NMeNle][NMeNle]LCG-NH2; thioether N-14), the pIC50 (as a rule, −log10 of the IC50, conventionally taken in molar units) is 8.47.

The same test, now with this note: PD-L1-His 10 nM pre-incubated with inhibitor, PD-1-Ig 20 nM; read-out: HTRF IC50.
Turning to `CCCC[C@H]1C(=O)N(C)[C@@H](CCCC)C(=O)N[C@@H](CC(C)C)C(=O)N[C@H](C(=O)NCC(N)=O)CSCC(=O)N[C@@H](Cc2ccc(O)cc2)C(=O)N(C)[C@@H](C)C(=O)N[C@@H](CC(N)=O)C(=O)N2CCC[C@H]2C(=O)N[C@@H](CNC(=S)Nc2ccc(Oc3ccccc3)cc2)C(=O)N[C@@H](CC(C)C)C(=O)N2C[C@H](O)C[C@H]2C(=O)N[C@@H](Cc2c[nH]c3ccccc23)C(=O)N[C@@H](CCN)C(=O)N[C@@H](Cc2cn(CC(=O)O)c3ccccc23)C(=O)N1C` [Example 1045] ({CH2CO}-Y[NMeA]NP[Dap](X3)L[Hyp]W[Dab][Trp(1-CH2COOH)][NMeNle][NMeNle]LCG-NH2; thioether N-14), the pIC50 was 8.48. As for `CCCC[C@H]1C(=O)N(C)[C@@H](CCCC)C(=O)N[C@@H](CC(C)C)C(=O)N[C@H](C(=O)NCC(N)=O)CSCC(=O)N[C@@H](Cc2ccc(O)cc2)C(=O)N(C)[C@@H](C)C(=O)N[C@@H](CC(N)=O)C(=O)N2CCC[C@H]2C(=O)N[C@@H](CNC(=S)Nc2ccc(Oc3ccccc3)cc2)C(=O)N[C@@H](CC(C)C)C(=O)N2C[C@H](O)C[C@H]2C(=O)N[C@@H](Cc2c[nH]c3ccccc23)C(=O)N[C@@H](CCNC(=S)Nc2ccc(Oc3ccccc3)cc2)C(=O)N[C@@H](Cc2cn(CC(=O)O)c3ccccc23)C(=O)N1C` [Example 1046] ({CH2CO}-Y[NMeA]NP[Dap](X3)L[Hyp]W[Dab](X3)[Trp(1-CH2COOH)][NMeNle][NMeNle]LCG-NH2; thioether N-14), the pIC50 is 7.96. For `CCCC[C@H]1C(=O)N(C)[C@@H](CCCC)C(=O)N[C@@H](CC(C)C)C(=O)N[C@H](C(=O)NCC(N)=O)CSCC(=O)N[C@@H](Cc2ccc(O)cc2)C(=O)N(C)[C@@H](C)C(=O)N[C@@H](CC(N)=O)C(=O)N2CCC[C@H]2C(=O)N[C@@H](CNC(=O)c2ccccc2-c2ccc(OC)cc2)C(=O)N[C@@H](CC(C)C)C(=O)N2C[C@H](O)C[C@H]2C(=O)N[C@@H](Cc2c[nH]c3ccccc23)C(=O)N[C@@H](CCNC(=O)c2ccccc2-c2ccc(OC)cc2)C(=O)N[C@@H](Cc2cn(CC(=O)OC)c3ccccc23)C(=O)N1C` [Example 1050] ({CH2CO}-Y[NMeA]NP[Dap](Benzoyl(2-(4-MeOPh)))L[Hyp]W[Dab](Benzoyl(2-(4-MeOPh)))[Trp(1-CH2CO2Me)][NMeNle][NMeNle]LCG-NH2; thioether N-14), the pIC50 is 7.41. With `CCCC[C@H]1C(=O)N(C)[C@@H](CCCC)C(=O)N[C@@H](CC(C)C)C(=O)N[C@H](C(=O)NCC(N)=O)CSCC(=O)N[C@@H](Cc2ccc(O)cc2)C(=O)N(C)[C@@H](C)C(=O)N[C@@H](CC(N)=O)C(=O)N2CCC[C@H]2C(=O)N[C@@H](CNC(=S)Nc2ccc(N3CCOCC3)cc2)C(=O)N[C@@H](CC(C)C)C(=O)N2C[C@H](O)C[C@H]2C(=O)N[C@@H](Cc2c[nH]c3ccccc23)C(=O)N[C@@H](CCN)C(=O)N[C@@H](Cc2cn(CC(=O)OC)c3ccccc23)C(=O)N1C` [Example 1053] ({CH2CO}-Y[NMeA]NP[Dap](X10)L[Hyp]W[Dab][Trp(1-CH2CO2Me)][NMeNle][NMeNle]LCG-NH2; thioether N-14), the pIC50 was 8.49. For `CCCC[C@H]1C(=O)N(C)[C@@H](CCCC)C(=O)N[C@@H](CC(C)C)C(=O)N[C@H](C(=O)NCC(N)=O)CSCC(=O)N[C@@H](Cc2ccc(O)cc2)C(=O)N(C)[C@@H](C)C(=O)N[C@@H](CC(N)=O)C(=O)N2CCC[C@H]2C(=O)N[C@@H](CNC(=S)Nc2ccc(-n3cnc(C)n3)c(OC)c2)C(=O)N[C@@H](CC(C)C)C(=O)N2C[C@H](O)C[C@H]2C(=O)N[C@@H](Cc2c[nH]c3ccccc23)C(=O)N[C@@H](CCN)C(=O)N[C@@H](Cc2cn(CC(=O)O)c3ccccc23)C(=O)N1C` [Example 1054] ({CH2CO}-Y[NMeA]NP[Dap](X24)L[Hyp]W[Dab][Trp(1-CH2COOH)][NMeNle][NMeNle]LCG-NH2; thioether N-14), the negative logarithm of the IC50 (pIC50) was 8.46.

For the molecule `CCCC[C@H]1C(=O)N(C)[C@@H](CCCC)C(=O)N[C@@H](CC(C)C)C(=O)N[C@H](C(=O)NCC(N)=O)CSCC(=O)N[C@@H](Cc2ccc(O)cc2)C(=O)N(C)[C@@H](C)C(=O)N[C@@H](CC(N)=O)C(=O)N2CCC[C@H]2C(=O)N[C@@H](CNC(=S)Nc2ccc(N3CCOCC3)cc2)C(=O)N[C@@H](CC(C)C)C(=O)N2C[C@H](O)C[C@H]2C(=O)N[C@@H](Cc2c[nH]c3ccccc23)C(=O)N[C@@H](CCN)C(=O)N[C@@H](Cc2cn(CC(=O)O)c3ccccc23)C(=O)N1C` [Example 1055] ({CH2CO}-Y[NMeA]NP[Dap](X10)L[Hyp]W[Dab][Trp(1-CH2COOH)][NMeNle][NMeNle]LCG-NH2; thioether N-14), the pIC50 was 9.05. Regarding `CCCC[C@H]1C(=O)N(C)[C@@H](CCCC)C(=O)N[C@@H](CC(C)C)C(=O)N[C@H](C(=O)NCC(N)=O)CSCC(=O)N[C@@H](Cc2ccc(O)cc2)C(=O)N(C)[C@@H](C)C(=O)N[C@@H](CC(N)=O)C(=O)N2CCC[C@H]2C(=O)N[C@@H](CNC(=O)Nc2ccccc2)C(=O)N[C@@H](CC(C)C)C(=O)N2C[C@H](O)C[C@H]2C(=O)N[C@@H](Cc2c[nH]c3ccccc23)C(=O)N[C@@H](CCN)C(=O)N[C@@H](Cc2cn(CC(=O)O)c3ccccc23)C(=O)N1C` [Example 1056] ({CH2CO}-Y[NMeA]NP[Dap]([CO-NHPh])L[Hyp]W[Dab][Trp(1-CH2COOH)][NMeNle][NMeNle]LCG-NH2; thioether N-14), the pIC50 was 8.51. As for `CCCC[C@H]1C(=O)N(C)[C@@H](CCCC)C(=O)N[C@@H](CC(C)C)C(=O)N[C@H](C(=O)NCC(N)=O)CSCC(=O)N[C@@H](Cc2ccc(O)cc2)C(=O)N(C)[C@@H](C)C(=O)N[C@@H](CC(N)=O)C(=O)N2CCC[C@H]2C(=O)N[C@@H](CNC(=O)c2ccccc2-c2ccc(OC)cc2)C(=O)N[C@@H](CC(C)C)C(=O)N2C[C@H](O)C[C@H]2C(=O)N[C@@H](Cc2c[nH]c3ccccc23)C(=O)N[C@@H](CCN)C(=O)N[C@@H](Cc2cn(CC(=O)OC)c3ccccc23)C(=O)N1C` [Example 1057] ({CH2CO}-Y[NMeA]NP[Dap](Benzoyl(2-(4-MeOPh)))L[Hyp]W[Dab][Trp(1-CH2CO2Me)][NMeNle][NMeNle]LCG-NH2; thioether N-14), the negative-log IC50 (pIC50) was 8.49. The same measure, in the same setting: the value for `CCCC[C@H]1C(=O)N(C)[C@@H](CCCC)C(=O)N[C@@H](CC(C)C)C(=O)N[C@H](C(=O)NCC(N)=O)CSCC(=O)N[C@@H](Cc2ccc(O)cc2)C(=O)N(C)[C@@H](C)C(=O)N[C@@H](CC(N)=O)C(=O)N2CCC[C@H]2C(=O)N[C@@H](CNC(=S)Nc2ccc(N3CCOCC3)nc2)C(=O)N[C@@H](CC(C)C)C(=O)N2C[C@H](O)C[C@H]2C(=O)N[C@@H](Cc2c[nH]c3ccccc23)C(=O)N[C@@H](CCN)C(=O)N[C@@H](Cc2cn(CC(=O)O)c3ccccc23)C(=O)N1C` [Example 1058] ({CH2CO}-Y[NMeA]NP[Dap](X94)L[Hyp]W[Dab][Trp(1-CH2COOH)][NMeNle][NMeNle]LCG-NH2; thioether N-14) was 8.40; that for `CCCC[C@H]1C(=O)N(C)[C@@H](CCCC)C(=O)N[C@@H](CC(C)C)C(=O)N[C@H](C(=O)NCC(N)=O)CSCC(=O)N[C@@H](Cc2ccc(O)cc2)C(=O)N(C)[C@@H](C)C(=O)N[C@@H](CC(N)=O)C(=O)N2CCC[C@H]2C(=O)N[C@@H](CNC(=S)Nc2ccc(-n3cnc(Cl)c3)c(OC)c2)C(=O)N[C@@H](CC(C)C)C(=O)N2C[C@H](O)C[C@H]2C(=O)N[C@@H](Cc2c[nH]c3ccccc23)C(=O)N[C@@H](CCN)C(=O)N[C@@H](Cc2cn(CC(=O)O)c3ccccc23)C(=O)N1C` [Example 1059] ({CH2CO}-Y[NMeA]NP[Dap](X23)L[Hyp]W[Dab][Trp(1-CH2COOH)][NMeNle][NMeNle]LCG-NH2; thioether N-14) was 8.46. With `CCCC[C@H]1C(=O)N(C)[C@@H](CCCC)C(=O)N[C@@H](CC(C)C)C(=O)N[C@H](C(=O)NCC(N)=O)CSCC(=O)N[C@@H](Cc2ccc(O)cc2)C(=O)N(C)[C@@H](C)C(=O)N[C@@H](CC(N)=O)C(=O)N2CCC[C@H]2C(=O)N[C@@H](CNC(=S)Nc2ccc(-n3cccn3)cc2)C(=O)N[C@@H](CC(C)C)C(=O)N2C[C@H](O)C[C@H]2C(=O)N[C@@H](Cc2c[nH]c3ccccc23)C(=O)N[C@@H](CCN)C(=O)N[C@@H](Cc2cn(CC(=O)O)c3ccccc23)C(=O)N1C` [Example 1060] ({CH2CO}-Y[NMeA]NP[Dap](X80)L[Hyp]W[Dab][Trp(1-CH2COOH)][NMeNle][NMeNle]LCG-NH2; thioether N-14), the negative logarithm of the IC50 (pIC50) is 8.96. With `CCCC[C@H]1C(=O)N(C)[C@@H](CCCC)C(=O)N[C@@H](CC(C)C)C(=O)N[C@H](C(=O)NCC(N)=O)CSCC(=O)N[C@@H](Cc2ccc(O)cc2)C(=O)N(C)[C@@H](C)C(=O)N[C@@H](CC(N)=O)C(=O)N2CCC[C@H]2C(=O)N[C@@H](CNC(=O)c2ccccc2-c2ccc(OC)cc2)C(=O)N[C@@H](CC(C)C)C(=O)N2C[C@H](O)C[C@H]2C(=O)N[C@@H](Cc2c[nH]c3ccccc23)C(=O)N[C@@H](CCN)C(=O)N[C@@H](Cc2cn(CC(=O)O)c3ccccc23)C(=O)N1C` [Example 1061] ({CH2CO}-Y[NMeA]NP[Dap](Benzoyl(2-(4-MeOPh)))L[Hyp]W[Dab][Trp(1-CH2COOH)][NMeNle][NMeNle]LCG-NH2; thioether N-14), the pIC50 was 8.40.

(Values after patent publication US20220389061A1, “IMMUNOMODULATORS” (priority 2019, published 2022).)
